target: T1, human LPA1 (Homo sapiens, UniProt Q92633); experiment: LPA1 functional antagonist assay (LPA-induced calcium flux in CHO cells overexpressing human LPA1); format: cell-based; conditions: inhibition of calcium flux induced by 10 nM LPA, CHO cells overexpressing human LPA1; read-out: hLPA1 IC50
T1 construct: expressed in transfected cells; host or cells: Chinese hamster ovary (CHO) cells
Method in brief: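 CHO cells overexpressing human LPA1, dye-loaded 30 min at 37 °C, then given compound (0.08 nM–5 μM final, 0.5% DMSO) in HBSS/20 mM HEPES/0.1% fatty-acid-free BSA for 20 min at room temperature before 10 nM LPA. IC50 as 50% inhibition of LPA-evoked calcium flux, 4-parameter logistic fit.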

T1 sequence (Q92633 whole entry): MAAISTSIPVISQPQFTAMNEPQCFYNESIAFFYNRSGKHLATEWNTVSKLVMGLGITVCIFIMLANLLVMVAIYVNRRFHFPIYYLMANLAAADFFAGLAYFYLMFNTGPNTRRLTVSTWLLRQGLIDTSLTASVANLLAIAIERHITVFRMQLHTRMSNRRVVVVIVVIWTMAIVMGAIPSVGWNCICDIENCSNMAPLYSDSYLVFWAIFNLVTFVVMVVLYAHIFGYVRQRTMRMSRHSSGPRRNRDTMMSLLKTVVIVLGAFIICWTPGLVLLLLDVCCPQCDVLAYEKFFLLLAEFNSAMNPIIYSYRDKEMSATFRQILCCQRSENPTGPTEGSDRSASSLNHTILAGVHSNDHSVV

| Compound | IC50 |
| --- | --- |
| Cc1nc(-c2nnn(C)c2Cn2nnc(CC3CCCC3)n2)ccc1O[C@H]1CCC[C@H](C(=O)O)C1 [Example 331, (1S,3S)-3-((6-(5-((5-(cyclopentyl-methyl)-2H-tetrazol-2-yl)methyl)-1-methyl-1H-1,2,3-triazol-4-yl)-2-methylpyridin-3-yl)oxy)cyclohexane-1-carboxylic acid] | 7 nM |
| Cc1nc(-c2nnn(C)c2Cn2nnc(OCC3CCC3)n2)ccc1O[C@H]1CCC[C@H](C(=O)O)C1 [Example 332, (1S,3S)-3-{[6-(5-{[5-(cyclobutyl-methoxy)-2H-1,2,3,4-tetrazol-2-yl]methyl}-1-methyl-1H-1,2,3-triazol-4-yl)-2-methylpyridin-3-yl]oxy}cyclohexane-1-carboxylic acid] | 30 nM |
| Cc1nc(-c2nnn(C)c2Cn2nnc(OC3CCC3)n2)ccc1O[C@H]1CCC[C@H](C(=O)O)C1 [Example 333, (1S,3S)-3-[(6-{5-[(5-cyclobutoxy-2H-1,2,3,4-tetrazol-2-yl)methyl]-1-methyl-1H-1,2,3-triazol-4-yl}-2-methylpyridin-3-yl)oxy]cyclo-hexane-1-carboxylic acid] | 48 nM |
| Cc1nc(-c2nnn(C)c2Cn2nnc(OCC3CC(F)(F)C3)n2)ccc1O[C@H]1CCC[C@@H](C(=O)O)C1 [Example 334, (1R,3S)-3-({6-[5-({5-[(3,3-difluoro-cyclobutyl)methoxy]-2H-1,2,3,4-tetrazol-2-yl}methyl)-1-methyl-1H-1,2,3-triazol-4-yl]-2-methylpyridin-3-yl}oxy)cyclohexane-1-carboxylic acid] | 258 nM |
| Cc1nc(-c2nnn(C)c2Cn2nnc(OC3CCC3)n2)ccc1O[C@H]1CCC[C@@H](C(=O)O)C1 [Example 335, (1R,3S)-3-[(6-{5-[(5-cyclobutoxy-2H-1,2,3,4-tetrazol-2-yl)methyl]-1-methyl-1H-1,2,3-triazol-4-yl}-2-methylpyridin-3-yl)oxy]cyclo-hexane-1-carboxylic acid] | 405 nM |
| Cc1nc(-c2nnn(C)c2Cn2nnc(OC3CCCC3)n2)ccc1O[C@H]1CCC[C@H](C(=O)O)C1 [Example 336, (1S,3S)-3-{[6-(5-{[5-(cyclopentyl-oxy)-2H-1,2,3,4-tetrazol-2-yl]methyl}-1-methyl-1H-1,2,3-triazol-4-yl)-2-methylpyridin-3-yl]oxy}cyclohexane-1-carboxylic acid] | 67 nM |
| Cc1nc(-c2nnn(C)c2Cn2nnc(OC3CCCC3)n2)ccc1O[C@H]1CCC[C@@H](C(=O)O)C1 [Example 337, (1R,3S)-3-{[6-(5-{[5-(cyclopentyloxy)-2H-1,2,3,4-tetrazol-2-yl]methyl}-1-methyl-1H-1,2,3-triazol-4-yl)-2-methylpyridin-3-yl]oxy}cyclohexane-1-carboxylic acid] | 546 nM |
| Cc1nc(-c2nnn(C)c2Cn2nnc(OCC3CC(F)(F)C3)n2)ccc1O[C@H]1CCC[C@H](C(=O)O)C1 [Example 338] | 43 nM |
| Cc1nc(-c2nnn(C)c2Cn2nnc(OCC3CC3)n2)ccc1O[C@H]1CCC[C@@H](C(=O)O)C1 [Example 339, (1R,3S)-3-{[6-(5-{[5-(cyclopropyl-methoxy)-2H-1,2,3,4-tetrazol-2-yl]methyl}-1-methyl-1H-1,2,3-triazol-4-yl)-2-methylpyridin-3-yl]oxy}cyclohexane-1-carboxylic acid] | 192 nM |
| CCCOc1nnn(Cc2c(-c3ccc(O[C@H]4CCC[C@H](C(=O)O)C4)c(C)n3)nnn2C)n1 [Example 340] | 97 nM |
| Cc1nc(-c2nnn(C)c2Cn2nnc(OC3CC3)n2)ccc1O[C@H]1CCC[C@@H](C(=O)O)C1 [Example 341, (3S)-3-[(6-{5-[(5-cyclopropoxy-2H-1,2,3,4-tetrazol-2-yl)methyl]-1-methyl-1H-1,2,3-triazol-4-yl}-2-methylpyridin-3-yl)oxy]cyclo-hexane-1-carboxylic acid] | 81 nM |
| Cc1nc(-c2nnn(C)c2Cn2nnc(OCc3ccccc3)n2)ccc1O[C@H]1CCC[C@H](C(=O)O)C1 [Example 342, (1S,3S)-3-{[6-(5-{[5-(benzyloxy)-2H-1,2,3,4-tetrazol-2-yl]methyl}-1-methyl-1H-1,2,3-triazol-4-yl)-2-methylpyridin-3-yl]oxy}cyclo-hexane-1-carboxylic acid] | 11 nM |
| Cc1nc(-c2nnn(C)c2Cn2nnc(S(C)(=O)=O)n2)ccc1O[C@H]1CCC[C@H](C(=O)O)C1 [Example 343, (1S,3S)-3-[(6-{5-[(5-methane-sulfonyl-2H-1,2,3,4-tetrazol-2-yl)methyl]-1-methyl-1H-1,2,3-triazol-4-yl}-2-methylpyridin-3-yl)oxy]cyclohexane-1-carboxylic acid] | 1100 nM |
| Cc1nc(-c2nnn(C)c2Cn2nnc(OCC(C)C)n2)ccc1O[C@H]1CCC[C@H](C(=O)O)C1 [Example 344, (1S,3S)-3-{[2-methyl-6-(1-methyl-5-{[5-(2-methylpropoxy)-2H-1,2,3,4-tetrazol-2-yl]methyl}-1H-1,2,3-triazol-4-yl)pyridin-3-yl]oxy}cyclohexane-1-carboxylic acid] | 25 nM |
| CCCCOc1nnn(Cc2c(-c3ccc(O[C@H]4CCC[C@H](C(=O)O)C4)c(C)n3)nnn2C)n1 [Example 345, (1S,3S)-3-[(6-{5-[(5-butoxy-2H-1,2,3,4-tetrazol-2-yl)methyl]-1-methyl-1H-1,2,3-triazol-4-yl}-2-methylpyridin-3-yl)oxy]cyclo-hexane-1-carboxylic acid] | 32 nM |
| Cc1nc(-c2nnn(C)c2Cn2nnc(OC(C)C)n2)ccc1O[C@H]1CCC[C@H](C(=O)O)C1 [Example 346, (1S,3S)-3-{[2-methyl-6-(1-methyl-5-{[5-(propan-2-yloxy)-2H-1,2,3,4-tetrazol-2-yl]methyl}-1H-1,2,3-triazol-4-yl)pyridin-3-yl]oxy}cyclohexane-1-carboxylic acid] | 49 nM |
| CCCOc1nnn(Cc2c(-c3ccc(O[C@H]4CCC[C@@H](C(=O)O)C4)c(C)n3)nnn2C)n1 [Example 347, (1R,3S)-3-[(2-methyl-6-{1-methyl-5-[(5-propoxy-2H-1,2,3,4-tetrazol-2-yl)methyl]-1H-1,2,3-triazol-4-yl}pyridin-3-yl)oxy]cyclohexane-1-carboxylic acid] | 270 nM |
| Cc1nc(-c2nnn(C)c2Cn2nnc(OCC3CC3)n2)ccc1O[C@H]1CCC[C@H](C(=O)O)C1 [Example 348, (1S,3S)-3-{[6-(5-{[5-(cyclopropyl-methoxy)-2H-1,2,3,4-tetrazol-2-yl]methyl}-1-methyl-1H-1,2,3-triazol-4-yl)-2-methylpyridin-3-yl]oxy}cyclohexane-1-carboxylic acid] | 26 nM |
| Cc1c(O[C@H]2CCC[C@H](C(=O)O)C2)ccc(-c2nnn(C)c2Cn2nnc(OCC3CC3)n2)[n+]1[O-] [Example 349, 3-{[(1S,3S)-3-carboxycyclohexyl]oxy}-6-(5-{[5-(cyclopropyl-methoxy)-2H-1,2,3,4-tetrazol-2-yl]methyl}-1-methyl-1H-1,2,3-triazol-4-yl)-2-methylpyridin-1-ium-1-olate] | 304 nM |
| Cc1nc(-c2nnn(C)c2Cn2nnnc2S(C)(=O)=O)ccc1O[C@H]1CCC[C@H](C(=O)O)C1 [Example 350, (1S,3S)-3-[(6-{5-[(5-methanesul-fonyl-1H-1,2,3,4-tetrazol-1-yl)methyl]-1-methyl-1H-1,2,3-triazol-4-yl}-2-methylpyridin-3-yl)oxy]cyclohexane-1-carboxylic acid] | 1240 nM |
| Cc1nc(-c2nnn(C)c2Cn2nnnc2OCC2CC2)ccc1O[C@H]1CCC[C@H](C(=O)O)C1 [Example 351, (1S,3S)-3-{[6-(5-{[5-(cyclopropyl-methoxy)-1H-1,2,3,4-tetrazol-1-yl]methyl}-1-methyl-1H-1,2,3-triazol-4-yl)-2-methylpyridin-3-yl]oxy}cyclohexane-1-carboxylic acid] | 152 nM |
| CSc1nnnn1Cc1c(-c2ccc(O[C@H]3CCC[C@H](C(=O)O)C3)c(C)n2)nnn1C [Example 352, (1S,3S)-3-{[2-methyl-6-(1-methyl-5-{[5-(methylsulfanyl)-1H-1,2,3,4-tetrazol-1-yl]methyl}-1H-1,2,3-triazol-4-yl)pyridin-3-yl]oxy}cyclohexane-1-carboxylic acid] | 580 nM |
| CSc1nnn(Cc2c(-c3ccc(O[C@H]4CCC[C@H](C(=O)O)C4)c(C)n3)nnn2C)n1 [Example 353, (1S,3S)-3-{[2-methyl-6-(1-methyl-5-{[5-(methylsulfanyl)-2H-1,2,3,4-tetrazol-2-yl]methyl}-1H-1,2,3-triazol-4-yl)pyridin-3-yl]oxy}cyclohexane-1-carboxylic acid] | 800 nM |
| Cc1nc(-c2nnn(C)c2Cn2nnnc2C2CCC2)ccc1O[C@H]1CCC[C@H](C(=O)O)C1 [Example 354, (1S,3S)-3-[(6-{5-[(5-cyclobutyl-1H-1,2,3,4-tetrazol-1-yl)methyl]-1-methyl-1H-1,2,3-triazol-4-yl}-2-methylpyridin-3-yl)oxy]cyclo-hexane-1-carboxylic acid] | 226 nM |
| Cc1nc(-c2nnn(C)c2Cn2nnc(C3CCC3)n2)ccc1O[C@H]1CCC[C@H](C(=O)O)C1 [Example 355, (1S,3S)-3-[(6-{5-[(5-cyclobutyl-2H-1,2,3,4-tetrazol-2-yl)methyl]-1-methyl-1H-1,2,3-triazol-4-yl}-2-methylpyridin-3-yl)oxy]cyclohexane-1-carboxylic acid] | 32 nM |
| Cc1nc(-c2nnn(C)c2Cn2nnnc2CC2CCC2)ccc1O[C@H]1CCC[C@H](C(=O)O)C1 [Example 356, (1S,3S)-3-{[6-(5-{[5-(cyclobutyl-methyl)-1H-1,2,3,4-tetrazol-1-yl]methyl}-1-methyl-1H-1,2,3-triazol-4-yl)-2-methylpyridin-3-yl]oxy}cyclohexane-1-carboxylic acid] | 146 nM |
| Cc1nc(-c2nnn(C)c2Cn2nnnc2CCC2CC2)ccc1O[C@H]1CCC[C@H](C(=O)O)C1 [Example 357, (1S,3S)-3-{[6-(5-{[5-(2-cyclopro-pylethyl)-1H-1,2,3,4-tetrazol-1-yl]methyl}-1-methyl-1H-1,2,3-triazol-4-yl)-2-methylpyridin-3-yl]oxy}cyclohexane-1-carboxylic acid] | 332 nM |

From US11319315B2, “Cyclohexyl acid triazole azoles as LPA antagonists” (BRISTOL-MYERS SQUIBB COMPANY, priority 2017, dated 2022)
